Measured values reported in patent US20250108358A1, “PHOTOCHEMICALLY DRIVEN REGENERATION OF CARBON DIOXIDE SORBENTS” (UT-Battelle, LLC, priority 2023, published 2025).

Experiments:
[1] = Total inorganic carbon (TIC) analysis, CO2-loaded glycine system; conditions: for reduction in the inorganic carbon content: vs CO2-loaded glycine solution
Protocol: See F. M. Brethome et al., Nat. Energy 2018, 3, 553-559 and R. Custelcean et al., Ind. Eng. Chem. Res. 2019, 58, 23338-23346.
(§1) Total inorganic carbon analysis: To quantify the amount of total inorganic carbon converted to CO2, the quantities of bicarbonate in the solution before and after the irradiation were determined using a total inorganic carbon analyzer consisting of an acidification module and a coulometric detection. […] Air was used as carrier gas (100 mL/min) in all experiments. 1 mM KHCO3 solution was tested similarly as the reference sample. Calculations were based on sample volume and 1 M Na2CO3 was used as the standard solution.

[2] = Total inorganic carbon (TIC) analysis, simulated system with KHCO3
Protocol: as §1

[3] = pH measurements of mPAH 1 solutions under 355 nm lamp irradiation; assay type: physicochemical
Description: Light sources: The light source, referred as the 355 nm lamp thereafter, is a portion of the output of an Oriel 200 W mercury-xenon lamp, which was selected using a 2″ round Oriel broadband filter centered at 355 nm with a full width at half maximum of ˜150 nm and highest transmission of ˜90% (Filters 51664 and 59814). The photon fluxes at the sample position was ˜500 μmol·m^−2·s^−1, which measured using a handheld meter.
pH measurements and absorption spectra measurements: Typically for all experiments using the 355 nm lamp, 6 mL of solution mixtures were placed in a glass vial of diameter ˜2 cm and pH variations of the solutions upon light exposure were monitored continuously using a pH meter. Solutions were exposed to air and continuously stirred during pH measurements and sealed and kept in the dark without stirring for the mPAH 1 reverse reaction. Calculated amount of bicarbonate was replaced prior to second and third cycles. All absorption spectra during a given reaction event were acquired using a UV-vis spectrometer by taking a small amount (˜200 μL) of solution. Co-existence of different mPAH 1 conformers were verified using 1H NMR spectroscopy and theoretical calculations.

Solubility in water = assay type: physicochemical
[4] = Head space CO2 release measurement (infrared sensor, 470 nm LED); conditions: mPAH 2/morpholine
Description: This step is important to reproducibly measure the CO2 release as described below. […] After the reading of CO2 was steady, irradiation was applied from outside of the glass chamber using a 470 nm LED with moderate power (˜ 13 mW/cm^2). The CO2 released to the chamber was monitored using a head space method, as also used in previous studies. The concentration of CO2 gas in the chamber was monitored by the sensor and compared to that of a standard. Not only does this method directly measure the CO2 gas released, but also it is suitable for studying relatively small samples with good sensitivity. […] Addition of a strong acid leads to complete decomposition of the bicarbonate and CO2 release. […] It also reacts with CO2 via an acid-base reaction to form bicarbonate salt.

solubility in water (Solubility in water)	Structure (SMILES)	reduction in the inorganic carbon content ([1]; 1 mM mixture of CO2-loaded glycine and mPAH 1, upon irradiation)	reduction in the inorganic carbon content ([1]; 20 mM mixture of CO2-loaded glycine and mPAH 1, upon irradiation) [%]	efficiency of conversion of total inorganic carbon to CO2 ([1]; amino acid (AA)-based DAC systems, with respect to initial concentrations)	total inorganic carbon in the solution converted to CO2 ([2]; 1 mM mPAH 1 + 1 mM KHCO3 (simulated system), upon irradiation) [%]	total bicarbonate converted to CO2 ([2]; 2 mM mPAH 1 pre-irradiated 30 min, mixed with equal volume 2 mM KHCO3, reaction without irradiation) [%]	total bicarbonate converted to CO2 ([2]; 2 mM mPAH 1 pre-irradiated, mixed with equal volume 2 mM KHCO3, continuous irradiation) [%]	rate of pH increase owing to CO2 release ([3]; 1 mM mPAH 1 + 1 mM KHCO3, second cycle of irradiation) [pH units/hour]	rate of pH increase owing to CO2 release ([3]; 1 mM mPAH 1 + 1 mM KHCO3, third cycle of irradiation) [pH units/hour]	pH increment ([3]; 1 mM mPAH 1 + 1 mM KHCO3, third cycle performed only 4 hours after the second cycle) [pH units/hour]	time for full reverse reaction to the initial trans isomer ([3]; mPAH 1 itself, in the dark) [h]	time after start of irradiation at which head space [CO2] rose [4] [min]
	O=S(=O)([O-])CCC[n+]1c(/C=C/c2cc(S(=O)(=O)[O-])cc3cn[nH]c23)sc2ccccc21.[Na+] [mPAH 1]	approximately 68%	~78	68%-78%	55	~3	~50	0.35	0.11	0.31	4 to 6	
about 30 mM	COC(=O)c1ccc2sc(/C=C/c3cc(S(=O)(=O)[O-])cc4cn[nH]c34)[n+](CCCS(=O)(=O)O)c2c1 [mPAH 2]											~5
